How the values were obtained:
[1] = AUC (0 to last) in C57BL/6 mouse at 3 mg/kg, po; assay type: ADME, organism-based; parameters: time 0 - last, route oral, dose 3 mg/kg; details: in vivo
[2] = target: T1, UDP-glucuronosyltransferase 2B7 (Homo sapiens, UniProt P16662); test: Inhibition of UGT2B7 (unknown origin); assay type: ADME
T1 sequence (P16662 whole entry): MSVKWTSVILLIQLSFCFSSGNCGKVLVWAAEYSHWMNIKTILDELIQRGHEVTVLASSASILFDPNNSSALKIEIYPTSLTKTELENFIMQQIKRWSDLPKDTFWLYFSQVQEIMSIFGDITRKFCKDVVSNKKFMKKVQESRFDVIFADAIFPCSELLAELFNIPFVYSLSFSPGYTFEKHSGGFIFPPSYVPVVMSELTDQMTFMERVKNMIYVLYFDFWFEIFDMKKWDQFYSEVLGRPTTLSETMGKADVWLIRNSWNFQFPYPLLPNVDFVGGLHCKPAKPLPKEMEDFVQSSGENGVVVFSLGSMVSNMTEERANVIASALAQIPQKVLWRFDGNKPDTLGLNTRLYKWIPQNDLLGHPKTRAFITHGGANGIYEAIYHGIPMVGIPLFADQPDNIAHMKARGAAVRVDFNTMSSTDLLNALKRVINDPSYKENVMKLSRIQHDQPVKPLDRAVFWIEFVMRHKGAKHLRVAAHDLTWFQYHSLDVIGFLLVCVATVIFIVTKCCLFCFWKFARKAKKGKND

[3] = Half life in Sprague-Dawley rat at 1 mg/kg, iv; assay type: ADME, organism-based; details: in vivo
[4] = In vivo inhibition of SFT de novo synthesis in PN14 to PN21 days C57BL/6 mouse brain assessed as reduction in [13C] galactose incorporation into SFT at 10 mg/kg, po bid for 2 days and single dose at day 3 treated 1 hr prior to intraperitoneal injection of [13C] galactose measured after 5 hrs of last dose relative to control; assay type: functional; details: C57BL/6, 72 h, time 3 day
[5] = Drug uptake in C57BL/6 mouse brain at 3 mg/kg, iv measured at 5 mins; assay type: ADME, organism-based; details: read-out: Drug uptake
[6] = target: T2, UDP-glucuronosyltransferase 1A1 (Homo sapiens, UniProt P22309); test: Inhibition of UGT1A1 (unknown origin); assay type: ADME
T2 sequence (P22309 whole entry): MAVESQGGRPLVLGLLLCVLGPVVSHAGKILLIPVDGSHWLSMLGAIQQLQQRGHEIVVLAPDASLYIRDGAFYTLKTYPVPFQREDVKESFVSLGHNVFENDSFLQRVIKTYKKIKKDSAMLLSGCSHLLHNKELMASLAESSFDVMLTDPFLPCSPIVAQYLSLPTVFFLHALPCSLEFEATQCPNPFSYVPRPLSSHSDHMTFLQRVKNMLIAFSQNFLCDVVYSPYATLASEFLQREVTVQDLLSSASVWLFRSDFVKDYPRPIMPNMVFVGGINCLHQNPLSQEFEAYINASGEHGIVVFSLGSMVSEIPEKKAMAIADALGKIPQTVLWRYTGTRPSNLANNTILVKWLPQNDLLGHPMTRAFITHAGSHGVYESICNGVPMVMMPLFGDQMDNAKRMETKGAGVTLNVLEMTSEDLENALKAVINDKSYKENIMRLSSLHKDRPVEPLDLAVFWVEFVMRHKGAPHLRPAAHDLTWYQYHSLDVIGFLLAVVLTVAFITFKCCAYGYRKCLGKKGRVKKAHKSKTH

[7] = target: T3, UDP-glucuronosyltransferase 2B17 (Homo sapiens, UniProt O75795); test: Inhibition of UGT2B17 (unknown origin); assay type: ADME
T3 sequence (O75795 whole entry): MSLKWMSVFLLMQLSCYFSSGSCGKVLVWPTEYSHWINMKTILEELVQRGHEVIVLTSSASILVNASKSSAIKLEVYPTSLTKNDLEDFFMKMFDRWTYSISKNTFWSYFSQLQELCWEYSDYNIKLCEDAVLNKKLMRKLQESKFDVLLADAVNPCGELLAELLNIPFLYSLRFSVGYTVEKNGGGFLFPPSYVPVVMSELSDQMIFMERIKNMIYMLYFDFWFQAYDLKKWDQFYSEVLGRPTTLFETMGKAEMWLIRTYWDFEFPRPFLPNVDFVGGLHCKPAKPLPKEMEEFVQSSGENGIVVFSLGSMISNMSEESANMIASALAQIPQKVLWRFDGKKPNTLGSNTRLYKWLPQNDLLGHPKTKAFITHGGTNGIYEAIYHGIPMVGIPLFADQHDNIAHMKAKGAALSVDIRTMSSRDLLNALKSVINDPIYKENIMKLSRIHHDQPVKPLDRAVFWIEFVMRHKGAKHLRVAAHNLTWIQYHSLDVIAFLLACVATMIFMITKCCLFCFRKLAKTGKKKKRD

[8] = (§1) In vivo inhibition of SFT de novo synthesis in adult C57BL/6 mouse kidney assessed as reduction in [13C] galactose incorporation into SFT at 1 mg/kg, po via gavage treated with compound for 1 hr prior to intraperitoneal injection of [13C] galactose measured after 5 hrs of compound administration relative to control; assay type: functional
[9] = Distribution coefficient, log D of the compound; assay type: physicochemical; details: octanol/water
[10] = as §1, with “at 10” for “at 1”; assay type: functional
[11] = Half life in C57BL/6 mouse at 1 mg/kg, iv; assay type: ADME, organism-based; details: in vivo
[12] = target: T4, UDP-glucuronosyltransferase 1A6 (Homo sapiens, UniProt P19224); test: Inhibition of UGT1A6 (unknown origin); assay type: ADME
T4 sequence (P19224 whole entry): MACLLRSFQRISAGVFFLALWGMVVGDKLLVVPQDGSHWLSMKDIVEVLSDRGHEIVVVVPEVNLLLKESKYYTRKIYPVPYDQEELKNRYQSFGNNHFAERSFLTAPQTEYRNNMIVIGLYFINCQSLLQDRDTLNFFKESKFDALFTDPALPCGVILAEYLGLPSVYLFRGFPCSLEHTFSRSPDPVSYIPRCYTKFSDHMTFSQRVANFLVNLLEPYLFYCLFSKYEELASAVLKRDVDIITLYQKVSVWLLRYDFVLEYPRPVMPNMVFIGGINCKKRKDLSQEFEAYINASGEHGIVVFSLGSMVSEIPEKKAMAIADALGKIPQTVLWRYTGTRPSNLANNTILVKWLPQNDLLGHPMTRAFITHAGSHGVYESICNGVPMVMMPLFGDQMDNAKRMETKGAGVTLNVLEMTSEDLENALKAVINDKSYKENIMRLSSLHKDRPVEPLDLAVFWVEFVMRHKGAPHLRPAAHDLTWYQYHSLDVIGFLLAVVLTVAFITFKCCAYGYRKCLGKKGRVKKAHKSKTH

[13] = Oral bioavailability in Beagle dog at 3 mg/kg; assay type: ADME, organism-based, Canis lupus familiaris; details: in vivo
[14] = as §1, with “of GalCer” for “of SFT”, “into GalCer” for “into SFT”, “at 3” for “at 1”; assay type: functional
[15] = (§2) In vivo inhibition of GalCer de novo synthesis in po dosed adult C57BL/6 mouse kidney assessed as reduction in [13C] galactose incorporation into GalCer treated with compound for 1 hr prior to intraperitoneal injection of [13C] galactose measured after 5 hrs of compound administration; assay type: functional
[16] = test system: Mus musculus; test: as §2; assay type: functional

SMILES: CNC(=O)c1csc2c(C(F)(F)F)cc(N3CCC(OC(=O)N[C@@H](C)COC(F)(F)F)CC3)nc12
- AUC(0-t) [1]: 784 ng·h/mL
- IC50 [2]: > 10 µM
- half-life [3]: 4.3 h
- inhibition in vivo at 10 mg/kg [4]: 97%
- concentration at 5 min [5]: 2050 ng/mL
- IC50 [6]: > 10 µM
- IC50 [7]: > 10 µM
- inhibition in vivo at 1 mg/kg [8]: 50%
- logD [9]: 5.09
- inhibition in vivo at 10 mg/kg [10]: 95%
- half-life [11]: 1.13 h
- IC50 [12]: > 10 µM
- bioavailability [13]: 52%
- inhibition in vivo at 3 mg/kg [14]: 72%
- ED50 [15]: 1 mg/kg
- inhibition [16]: Dose-dependent effect

— ChEMBL document CHEMBL4725449, “Brain Penetrable Inhibitors of Ceramide Galactosyltransferase for the Treatment of Lysosomal Storage Disorders” (ACS Med Chem Lett, 2020)
